Assay [1] concerns Mus musculus. Description: Mean survival time against trophozoite induced Plasmodium berghei in mice minus control was evaluated at a dose 5 mg/kg. The assay is classed as functional.
Assay [2] has as its system Mus musculus. Description: Mean survival time against trophozoite induced Plasmodium berghei in mice minus control was evaluated at a dose 80 mg/kg; 5 survived out of 5 animals at 60 days postinjection. Format: functional, organism-based. More on the design: dose 80 mg/kg.
In assay [3] the test system is Mus musculus. Description: Mean survival time against trophozoite induced Plasmodium berghei in mice minus control was evaluated at a dose 160 mg/kg; 5 survived out of 5 animals at 60 days postinjection. The assay is classed as functional, organism-based. More on the design: dose 160 mg/kg.
Assay [4] concerns Mus musculus. Description: Mean survival time against trophozoite induced Plasmodium berghei in mice minus control was evaluated at a dose 10 mg/kg. Format: functional.
For assay [5], the system named is Mus musculus. Put plainly: Mean survival time against trophozoite induced Plasmodium berghei in mice minus control was evaluated at a dose 320 mg/kg; 5 survived out of 5 animals at 60 days postinjection. The assay is classed as functional, organism-based. More on the design: dose 320 mg/kg.
Assay [6] deals with Mus musculus. Put plainly: Mean survival time against trophozoite induced Plasmodium berghei in mice minus control was evaluated at a dose 40 mg/kg; 10 survived out of 10 animals at 60 days postinjection. More on the design: dose 40 mg/kg. Format: functional, organism-based.
In assay [7] the test system is Mus musculus. Description: Mean survival time against trophozoite induced Plasmodium berghei in mice minus control was evaluated at a dose 1.25 mg/kg. The assay is classed as functional.
In assay [8] the test system is Mus musculus. Put plainly: Mean survival time against trophozoite induced Plasmodium berghei in mice minus control was evaluated at a dose 2.5 mg/kg. Format: functional.
In assay [9] the test system is Mus musculus. Description: Mean survival time against trophozoite induced Plasmodium berghei in mice minus control was evaluated at a dose 20 mg/kg; 8 survived out of 10 animals at 60 days postinjection. The assay is classed as functional, organism-based. More on the design: dose 20 mg/kg.
In assay [10] the test system is Mus musculus. Put plainly: Mean survival time against trophozoite induced Plasmodium berghei in mice minus control was evaluated at a dose 80 mg/kg. Format: functional.
Assay [11] has as its system Mus musculus. Put plainly: Mean survival time against trophozoite induced Plasmodium berghei in mice minus control was evaluated at a dose 40 mg/kg. Format: functional.
Assay [12] relates to Mus musculus. Put plainly: Mean survival time against trophozoite induced Plasmodium berghei in mice minus control was evaluated at a dose 20 mg/kg. Format: functional.
The subject of assay [13] is Mus musculus. Description: Mean survival time against trophozoite induced Plasmodium berghei in mice minus control was evaluated at a dose 320 mg/kg; 10 survived out of 10 animals at 60 days postinjection. The assay is classed as functional, organism-based. More on the design: dose 320 mg/kg.
In assay [14] the test system is Mus musculus. Put plainly: Mean survival time against trophozoite induced Plasmodium berghei in mice minus control was evaluated at a dose 640 mg/kg. Format: functional.
For assay [15], the system named is Mus musculus. Put plainly: Mean survival time against trophozoite induced Plasmodium berghei in mice minus control was evaluated at a dose 160 mg/kg. Format: functional.
Assay [16] deals with Mus musculus. Put plainly: Mean survival time against trophozoite induced Plasmodium berghei in mice minus control was evaluated at a dose 640 mg/kg; 5 toxic death occurred out of 5 animals on days 2-5 after injection. Format: functional, organism-based. More on the design: dose 640 mg/kg.
The test system of assay [17] is Mus musculus. Description: Mean survival time against trophozoite induced Plasmodium berghei in mice minus control was evaluated at a dose 80 mg/kg; 4 survived out of 5 animals at 60 days postinjection. Format: functional, organism-based. More on the design: dose 80 mg/kg.
The test system of assay [18] is Mus musculus. Description: Mean survival time against trophozoite induced Plasmodium berghei in mice minus control was evaluated at a dose 160 mg/kg; 1 survived out of 5 animals at 60 days postinjection. Format: functional, organism-based. More on the design: dose 160 mg/kg.
Assay [19] concerns Mus musculus. Put plainly: Mean survival time against trophozoite induced Plasmodium berghei in mice minus control was evaluated at a dose 320 mg/kg. The assay is classed as functional.
Assay [20] has as its system Mus musculus. Description: Mean survival time against trophozoite induced Plasmodium berghei in mice minus control was evaluated at a dose 40 mg/kg; 8 survived out of 10 animals at 60 days postinjection. The assay is classed as functional, organism-based. More on the design: dose 40 mg/kg.
Assay [21] deals with Mus musculus. Description: Mean survival time against trophozoite induced Plasmodium berghei in mice minus control was evaluated at a dose 640 mg/kg; 5 survived out of 5 animals at 60 days postinjection. Format: functional, organism-based. More on the design: dose 640 mg/kg.
The subject of assay [22] is Mus musculus. Put plainly: Mean survival time against trophozoite induced Plasmodium berghei in mice minus control was evaluated at a dose 40 mg/kg; 5 survived out of 5 animals at 60 days postinjection. The assay is classed as functional, organism-based. More on the design: dose 40 mg/kg.
Assay [23] has as its system Mus musculus. Description: Mean survival time against trophozoite induced Plasmodium berghei in mice minus control was evaluated at a dose 20 mg/kg; 3 survived out of 5 animals at 60 days postinjection. The assay is classed as functional, organism-based. More on the design: dose 20 mg/kg.
In assay [24] the test system is Mus musculus. Description: Mean survival time against trophozoite induced Plasmodium berghei in mice minus control was evaluated at a dose 80 mg/kg; 10 survived out of 10 animals at 60 days postinjection. The assay is classed as functional, organism-based. More on the design: dose 80 mg/kg.
For assay [25], the system named is Mus musculus. Description: Mean survival time against trophozoite induced Plasmodium berghei in mice minus control was evaluated at a dose 160 mg/kg; 10 survived out of 10 animals at 60 days postinjection. More on the design: dose 160 mg/kg. The assay is classed as functional, organism-based.
Assay [26] concerns Mus musculus. Description: Mean survival time against trophozoite induced Plasmodium berghei in mice minus control was evaluated at a dose 40 mg/kg; 15 survived out of 15 animals at 60 days postinjection. Format: functional, organism-based. More on the design: dose 40 mg/kg.
Assay [27] deals with Mus musculus. Put plainly: Mean survival time against trophozoite induced Plasmodium berghei in mice minus control was evaluated at a dose 20 mg/kg; 8 survived out of 15 animals at 60 days postinjection. More on the design: dose 20 mg/kg. The assay is classed as functional, organism-based.
Assay [28] has as its system Mus musculus. Description: Mean survival time against trophozoite induced Plasmodium berghei in mice minus control was evaluated at a dose 640 mg/kg; 7 survived out of 10 animals at 60 days postinjection. Format: functional, organism-based. More on the design: dose 640 mg/kg.
Assay [29] has as its system Mus musculus. Put plainly: Mean survival time against trophozoite induced Plasmodium berghei in mice minus control was evaluated at a dose 80 mg/kg. Format: functional.

The values that follow come from ChEMBL document CHEMBL1122946, “Folate antagonists. 21. Synthesis and antimalarial properties of 2,4-diamino-6-(benzylamino)pyrido[3,2-d]pyrimidines” (1985).

`CN(Cc1ccc(Cl)c(Cl)c1)c1ccc2nc(N)nc(N)c2n1`: the “Delta MST” value with Mus musculus [1] was 9.1 days; with Mus musculus [2] it was “Survivals 5/5”; in the assay with Mus musculus [3], “Survivals 5/5”; in the assay on Mus musculus [4] it was 11.9 days; with Mus musculus [5], “Survivals 5/5”; in the assay with Mus musculus [6] it was “Survivals 10/10”. Also, the results for the “Delta MST” value in the assay with Mus musculus [7], in the assay with Mus musculus [8] and in the assay on Mus musculus [9] were 2.9 days, 4.3 days and “Survivals 8/10”, respectively.

`Nc1nc(N)c2nc(N3CCCCC3Cc3ccccc3)ccc2n1` (stereo not given): the “Delta MST” value in the assay with Mus musculus [10] is 8.2 days; with Mus musculus [3], “Survivals 5/5”; in the assay on Mus musculus [11], 4.9 days; in the assay with Mus musculus [12], 3 days; with Mus musculus [13], “Survivals 10/10”.

On to `CCN(Cc1ccc(Cl)cc1)c1ccc2nc(N)nc(N)c2n1`, for which the “Delta MST” value was 1.1 days in the assay on Mus musculus [14], 0.9 days in the assay with Mus musculus [15] and 0.9 days in the assay with Mus musculus [11].

With `Nc1nc(N)c2nc(N3CCCCC3)ccc2n1`, the results for the “Delta MST” value with Mus musculus [16], in the assay on Mus musculus [15] and with Mus musculus [11] were “Toxic Deaths 5/5”, 0.4 days and 0.3 days, respectively.

As for `CN(Cc1ccc(C(F)(F)F)cc1)c1ccc2nc(N)nc(N)c2n1`, the “Delta MST” value in the assay on Mus musculus [14] is 2.5 days; with Mus musculus [17] it was “Survivals 4/5”; in the assay with Mus musculus [18], “Survivals 1/5”; in the assay on Mus musculus [19], 2.9 days; with Mus musculus [20], “Survivals 8/10”; in the assay on Mus musculus [12], 8.1 days.

Consider `CN(Cc1cccc(Cl)c1)c1ccc2nc(N)nc(N)c2n1`, for which the “Delta MST” value with Mus musculus [21] was “Survivals 5/5”; in the assay on Mus musculus [2], “Survivals 5/5”; with Mus musculus [3] it was “Survivals 5/5”; in the assay on Mus musculus [22], “Survivals 5/5”; in the assay on Mus musculus [5], “Survivals 5/5”; with Mus musculus [23], “Survivals 3/5”.

With `CN(Cc1ccc(Cl)c(Cl)c1)c1ccc2nc(N)nc(N)c2c1`, the “Delta MST” value with Mus musculus [21] is “Survivals 5/5”; in the assay with Mus musculus [24], “Survivals 10/10”; in the assay with Mus musculus [25], “Survivals 10/10”; in the assay with Mus musculus [4], 8.7 days; in the assay on Mus musculus [26], “Survivals 15/15”; in the assay on Mus musculus [27], “Survivals 8/15”. Further, the “Delta MST” value with Mus musculus [13] was “Survivals 10/10”.

`Nc1nc(N)c2nc(NCc3ccc(Cl)c(Cl)c3)ccc2n1`: the “Delta MST” value in the assay on Mus musculus [28] is “Survivals 7/10”; in the assay on Mus musculus [29], 4.9 days; in the assay on Mus musculus [15], 12.4 days; in the assay with Mus musculus [19] it was 15.3 days; with Mus musculus [11], 1.8 days; in the assay on Mus musculus [12] it was 0.5 days.
